Data taken from US12172986B2, “Splicing modulator antibody-drug conjugates and methods of use” (EISAI R&D MANAGEMENT CO., LTD., priority 2018, dated 2024).
pIC50: −log10 of the molar value.

Legend:
[1] = tested on: Ad2.1 pre-mRNA splicing; assay: In vitro splicing (IVS) RT-qPCR, Ad2.1 pre-mRNA, HeLa nuclear extract; type: biochemical; settings: payload of the ADC; read-out: qPCR-IVS-AT S Gmean IC50 (nm) Ad2.1 HELA.2
Procedure: HeLa nuclear extract preparation: HeLa S3 cell pellets were resuspended in hypotonic buffer (10 mM HEPES pH 7.9, 1.5 mM MgCl2, 10 mM KCl, 0.2 mM PMSF, 0.5 mM DTT) and the suspension was brought up to a total of 5 packed cell volume (PCV). After centrifugation, the supernatant was discarded, and the cells were brought up to 3 PCV with hypotonic buffer and incubated on ice for 10 min. Cells were lysed using a dounce homogenizer and then centrifuged. […] The nuclei were gently mixed for 30 min before centrifuging. The supernatant (nuclear extract) was then dialyzed into storage buffer (20 mM HEPES pH 7.9, 100 mM KCl, 0.2 mM EDTA, 20% glycerol, 0.2 mM PMSF, 0.5 mM DTT). Protein concentration was determined using NanoDrop 8000 UV-Vis spectrophotometer (ThermoFisher Scientific).
IVS: All Ad2-derived sequences (Pellizzoni et al. (1998) Cell 95(5):615-24) were cloned into pcDNA3.1(+) vector (Promega) using 5′ EcoRI and 3′ Xbal restriction sites. The plasmids were linearized using Xbal and used as DNA templates in in vitro transcription reactions. The FtzΔi intron-less plasmid (Luo and Reed (1999) 96(26):14937-42) was linearized using EcoRI. All RNAs were in vitro transcribed and then purified using MEGAScript T7 (Invitrogen) and MegaClear (Invitrogen) kits, respectively. For splicing reactions using Ad2 variant pre-mRNAs, 1 μL reactions were prepared using 8 μg nuclear extracts prepared from HeLa S3, 2 ng pre-mRNA, 0.2 ng FTZΔi, and varying concentrations of compounds or DMSO. After a 15 min pre-incubation at 30° C., 1 μL splicing activation buffer (0.5 mM ATP, 20 mM creatine phosphate, 1.6 mM MgCl2) was added, and the reactions were incubated for 90 min at 30° C. The reactions were then quenched with 13 μL DMSO, and 25 nL was used for RT-qPCR. RT-qPCR reactions were prepared using TaqMan RNA-to-CT 1-step kit (Life Technologies), RNA from splicing reactions, Ad2 (forward: [sequence]; reverse: [sequence]; probe: [sequence]) and Ftz (forward: [sequence]; reverse: [sequence]; probe: [sequence]) mRNA primer-probe sets. Prism 7 (Graphpad) was used for non-linear regression curve fitting of the formed spliced product and normalized to the control (DMSO) sample.

[2] = tested on: Ad2.2 pre-mRNA splicing; assay: In vitro splicing (IVS) RT-qPCR, Ad2.2 pre-mRNA, HeLa nuclear extract; type: biochemical; settings: payload of the ADC; read-out: qPCR-IVS-AT S GMean IC50 (nM) Ad2.2 HELA.2
Procedure: To evaluate payload activity in a cell-free system, an in vitro splicing assay was performed. The payloads were incubated with nuclear extracts and pre-mRNA substrate minigenes.
HeLa nuclear extract preparation: HeLa S3 cell pellets were resuspended in hypotonic buffer (10 mM HEPES pH 7.9, 1.5 mM MgCl2, 10 mM KCl, 0.2 mM PMSF, 0.5 mM DTT) and the suspension was brought up to a total of 5 packed cell volume (PCV). After centrifugation, the supernatant was discarded, and the cells were brought up to 3 PCV with hypotonic buffer and incubated on ice for 10 min. Cells were lysed using a dounce homogenizer and then centrifuged. […]. The nuclei were gently mixed for 30 min before centrifuging. The supernatant (nuclear extract) was then dialyzed into storage buffer (20 mM HEPES pH 7.9, 100 mM KCl, 0.2 mM EDTA, 20% glycerol, 0.2 mM PMSF, 0.5 mM DTT). Protein concentration was determined using NanoDrop 8000 UV-Vis spectrophotometer (ThermoFisher Scientific).
IVS: All Ad2-derived sequences (Pellizzoni et al. (1998) Cell 95(5):615-24) were cloned into pcDNA3.1(+) vector (Promega) using 5′ EcoRI and 3′ Xbal restriction sites. The plasmids were linearized using Xbal and used as DNA templates in in vitro transcription reactions. The FtzΔi intron-less plasmid (Luo and Reed (1999) 96(26):14937-42) was linearized using EcoRI. All RNAs were in vitro transcribed and then purified using MEGAScript T7 (Invitrogen) and MegaClear (Invitrogen) kits, respectively. For splicing reactions using Ad2 variant pre-mRNAs, 1 μL reactions were prepared using 8 μg nuclear extracts prepared from HeLa S3, 2 ng pre-mRNA, 0.2 ng FTZΔi, and varying concentrations of compounds or DMSO. After a 15 min pre-incubation at 30° C., 1 μL splicing activation buffer (0.5 mM ATP, 20 mM creatine phosphate, 1.6 mM MgCl2) was added, and the reactions were incubated for 90 min at 30° C. The reactions were then quenched with 13 μL DMSO, and 25 nL was used for RT-qPCR. RT-qPCR reactions were prepared using TaqMan RNA-to-CT 1-step kit (Life Technologies), RNA from splicing reactions, Ad2 (forward: […]; reverse: […]; probe: […]) and Ftz (forward: […]; reverse: […]; probe: […]) mRNA primer-probe sets. Prism 7 (Graphpad) was used for non-linear regression curve fitting of the formed spliced product and normalized to the control (DMSO) sample. […] In the presence of payload, a decrease in the amount of spliced product was observed.

[3] = tested on: HCC1954 cells; assay: Cell viability CellTiter-Glo, HCC1954; type: cell-based; settings: unconjugated payload of the ADC
Procedure: (§2) HCC1954 (American Type Culture Collection (ATCC)) breast ductal carcinoma cells were plated at 2000 cells/well in flat bottom 96-well tissue culture plates (Corning) in a total volume of 90 μL tissue culture medium supplemented with 10% fetal bovine serum (ThermoFisher Scientific). Cells were treated with a 3-fold serial dilution of compound from 200 nM to 0.03 nM. Each concentration was tested in triplicate. At the time of treatment, a plate of untreated cells was evaluated using CellTiter-Glo®2.0 Luminescent Cell Viability Assay according to the manufacturer's recommendations (Promega; #G9241). CellTiter-Glo® 2.0 reagent was added to the medium, incubated, and assayed on an EnVision Multilabel Reader (PerkinElmer). Values represent time zero (TO). […] Percentage growth inhibition was calculated as: [(T144-T0)/(C-TO)]×100 for concentrations for which T144>/=TO or [(T144-T0)/T0]×100 for concentrations for which T144<TO. The dose response curve plots were generated using Prism 7 (Graphpad) and fit using nonlinear regression analysis and the log(inhibitor) versus response-variable slope (four parameters).
(§3) HCC1954 (ATCC), 2000 cells/well), N87 (ATCC, 4000 cells/well), SKBR3 (ATCC, 3000 cells/well), and MCF7 (ATCC, 1500 cells/well) cell lines were used.

[4] = tested on: N87 cells; assay: Cell viability CellTiter-Glo, N87; type: cell-based, human; settings: unconjugated payload of the ADC
Procedure: as §2, §3

[5] = tested on: THP1.1; assay: Payload cell potency and lethality CTGlo 72 h, THP1.1; type: cell-based; settings: for CTGlo-AT S GMean LD50 (nM) 72 h THP1.1: payload; for GI50: read-out: CTGlo-AT S GMean GI50 (nM) Ad2.2 HELA.2
[6] = tested on: PC3 cells; assay: Cell viability, EPHA2-expressing PC3; type: cell-based; settings: for Payload LD50: corresponding payload alone; for GI50: Homo sapiens, PC-3, corresponding payload alone
Procedure: as §2

[7] = Caco-2 permeability of ADC payload; type: in vitro ADME; settings: human, Caco-2, payload; for efflux ratio at 2 h, 10 μM: B-A/A-B, read-out: Eflux ratio
Procedure: (§1) Integrity of cell monolayer was confirmed by TEER (transepithelial electrical resistance) and Lucifer yellow. Payloads were spiked in duplicate at 10 μM, separately, on both sides of the cell monolayer. Permeability rates from the apical to basolateral (A-B) direction and the basolateral to apical (B-A) direction were determined by sampling aliquots from both chambers immediately after treatment (t=0) and following incubation for 2 hours. Samples were protein precipitated with organic solvent containing internal standard and analyzed by LC-MS/MS (SCIEX; API 5500). The area ratio responses of payload/internal standard over time in both directions were used to generate permeability (cm/see) values. Efflux ratio was calculated by dividing B-A/A-B. Control compounds for low and high permeability and efflux behaved as expected.

[8] = tested on: Caco-2 cells; assay: Caco-2 permeability of ADC payload; type: in vitro ADME; settings: for Perm. Mean Caco-2 A-B Perm (10e-6 cm/s) / Perm. Mean Caco-2 B-A Perm (10e-6 cm/s): corresponding free payload of the ADC
Procedure: as §1

[9] = tested on: MCF7 cells; assay: Cell viability CellTiter-Glo, HER2-negative MCF7; settings: unconjugated payload of the ADC
Procedure: HCC1954 (American Type Culture Collection (ATCC)) breast ductal carcinoma cells were plated at 2000 cells/well in flat bottom 96-well tissue culture plates (Corning) in a total volume of 90 μL tissue culture medium supplemented with 10% fetal bovine serum (ThermoFisher Scientific). Cells were treated with a 3-fold serial dilution of compound from 200 nM to 0.03 nM. Each concentration was tested in triplicate. At the time of treatment, a plate of untreated cells was evaluated using CellTiter-Glo®2.0 Luminescent Cell Viability Assay according to the manufacturer's recommendations (Promega; #G9241). CellTiter-Glo® 2.0 reagent was added to the medium, incubated, and assayed on an EnVision Multilabel Reader (PerkinElmer). Values represent time zero (TO). […] Using the luminescence value at time zero (TO), DMSO control growth (C), and test growth in the presence of compound (T144), the percentage growth was calculated at each of the compound concentrations levels. Percentage growth inhibition was calculated as: [(T144-T0)/(C-TO)]×100 for concentrations for which T144>/=TO or [(T144-T0)/T0]×100 for concentrations for which T144<TO. The dose response curve plots were generated using Prism 7 (Graphpad) and fit using nonlinear regression analysis and the log(inhibitor) versus response-variable slope (four parameters).
as §3

| SMILES | pIC50 [1] | IC50 [2] [nM] | CTGlo-AT S GMean LD50 (nM) 72 h THP1.1 [5] [nM] | efflux ratio at 2 h, 10 μM [7] | further results |
| --- | --- | --- | --- | --- | --- |
| CC[C@H](O)[C@@H](C)[C@H]1O[C@@H]1C[C@@](C)(O)/C=C/C=C(\C)[C@H]1OC(=O)C[C@H](O)CC[C@@](C)(OC(=O)N2CCNCC2)[C@@H](OC(C)=O)/C=C/[C@@H]1C [D8, (2S,3S,6S,7R,10R,E)-6-acetoxy-10-hydroxy-2-((R,2E,4E)-6-hydroxy-7-((2R,3R)-3-((2R,3S)-3-hydroxypentan-2-yl)oxiran-2-yl)-6-methylhepta-2,4-dien-2-yl)-3,7-dimethyl-12-oxooxacyclododec-4-en-7-yl piperazine-1-carboxylate] | 7.94 | 9.03 | 38.969 | 15.9 | Payload LD50 [3]: 11.175 nM; Payload Rmin (%) [3]: −80.463%; Payload LD50 [4]: >200 nM; Payload LD50 [6]: 177.783 nM; Perm. Mean Caco-2 A-B Perm (10e-6 cm/s) [8]: 0.128 10e-6 cm/s; Perm. Mean Caco-2 B-A Perm (10e-6 cm/s) [8]: 2.027 10e-6 cm/s; Payload LD50 [9]: 181.521 nM; Payload Rmin (%) [9]: −62.957% |
| CC[C@H](O)[C@@H](C)[C@H]1O[C@@H]1C[C@H](C)/C=C/C=C(\C)[C@H]1OC(=O)C[C@H](O)CC[C@@](C)(OC(C)=O)[C@@H](OC(=O)N2CCNCC2)/C=C/[C@@H]1C [D9] | 7.69 | 18.1 | 3.56 | 14 | – |
| CC[C@H](O)[C@@H](C)[C@H]1O[C@@H]1C[C@@](C)(O)/C=C/C=C(\C)[C@H]1OC(=O)C[C@H](O)CC[C@@](C)(O)[C@@H](OC(=O)N2CCN(C3CCCCCC3)CC2)/C=C/[C@@H]1C [D11, E7107] | 7.98 | 9.36 | 8.086 | – | GI50 [5]: 1.35 nM |
| CC[C@H](O)[C@@H](C)[C@H]1O[C@@H]1C[C@@](C)(O)/C=C/C=C(\C)[C@H]1OC(=O)C[C@H](O)CC[C@@](C)(O)[C@@H](OC(=O)N2CCNCC2)/C=C/[C@@H]1C [D12, (2S,3S,6S,7R,10R,E)-7,10-dihydroxy-2-((R,2E,4E)-6-hydroxy-7-((2R,3R)-3-((2R,3S)-3-hydroxypentan-2-yl)oxiran-2-yl)-6-methylhepta-2,4-dien-2-yl)-3,7-dimethyl-12-oxooxacyclododec-4-en-6-yl piperazine-1-carboxylate] | – | – | – | – | Perm. Mean Caco-2 A-B Perm (10e-6 cm/s) [8]: 0.17 10e-6 cm/s; Perm. Mean Caco-2 B-A Perm (10e-6 cm/s) [8]: 0.23 10e-6 cm/s; efflux ratio (in words) ([8]; payload): low efflux ratio |
| CC[C@H](O)[C@@H](C)[C@H]1O[C@@H]1C[C@H](C)/C=C/C=C(\C)[C@H]1OC(=O)C[C@H](O)CC[C@@](C)(OC(=O)N2CCNCC2)[C@@H](OC(C)=O)/C=C/[C@@H]1C [D13] | 7.95 | 8.82 | 3.358 | 19.1 | – |
| CC[C@H](O)[C@@H](C)[C@H]1O[C@@H]1C[C@H](C)/C=C/C=C(\C)[C@H]1OC(=O)C[C@H](O)CC[C@@](C)(OC)[C@@H](OC(=O)N2CCNCC2)/C=C/[C@@H]1C [D18, (2S,3S,6S,7R,10R,E)-10-hydroxy-2-((S,2E,4E)-7-((2R,3R)-3-((2R,3S)-3-hydroxypentan-2-yl)oxiran-2-yl)-6-methylhepta-2,4-dien-2-yl)-7-methoxy-3,7-dimethyl-12-oxooxacyclododec-4-en-6-yl piperazine-1-carboxylate] | 7.90 | 12.7 | 4.355 | – | Payload LD50 [3]: 0.787 nM; Payload Rmin (%) [3]: −90.055%; Payload LD50 [4]: 2.993 nM; GI50 [6]: 1.41 nM; Payload LD50 [6]: >400 nM; Payload LD50 [9]: 7.697 nM; Payload Rmin (%) [9]: −68.226% |
| CC[C@H](O)[C@@H](C)[C@H]1O[C@@H]1C[C@@](C)(O)/C=C/C=C(\C)[C@H]1OC(=O)C[C@H](O)CC[C@@](C)(OC)[C@@H](OC(=O)N(C)CCNC)/C=C/[C@@H]1C [D20, (2S,3S,6S,7R,10R,E)-10-hydroxy-2-((R,2E,4E)-6-hydroxy-7-((2R,3R)-3-((2R,3S)-3-hydroxypentan-2-yl)oxiran-2-yl)-6-methylhepta-2,4-dien-2-yl)-7-methoxy-3,7-dimethyl-12-oxooxacyclododec-4-en-6-yl methyl(2-(methylamino)ethyl)carbamate] | 7.96 | 8.75 | 113.557 | – | – |
| CC[C@H](O)[C@@H](C)[C@H]1O[C@@H]1C[C@@](C)(O)/C=C/C=C(\C)[C@H]1OC(=O)C[C@H](O)CC[C@@](C)(OC)[C@@H](OC(=O)N2CCNC(CCC(=O)O)C2)/C=C/[C@@H]1C (stereo partly drawn) [D22, 3-(4-((((2S,3S,6S,7R,10R,E)-10-hydroxy-2-((R,2E,4E)-6-hydroxy-7-((2R,3R)-3-((2R,3S)-3-hydroxypentan-2-yl)oxiran-2-yl)-6-methylhepta-2,4-dien-2-yl)-7-methoxy-3,7-dimethyl-12-oxooxacyclododec-4-en-6-yl)oxy)carbonyl)piperazin-2-yl)propanoic acid] | 7.18 | 49.1 | 1594.636 | – | Papp B→A at 2 h, 10 μM ([7]; 10 μM, 2 hours, basolateral to apical, read-out: Permeability Mean Caco-2 B-A Perm (10e-Gcm/s)): 0.18 ×10⁻⁶ cm/s |
| C/C(=C\c1cc(F)cc(N2CCN(C(=O)Cn3cccn3)CC2)c1)[C@H]1OC(=O)C[C@H](O)CC[C@H](C)[C@@H](OC(=O)N2CCN(C)CC2)/C=C/[C@@H]1C [D26] | 7.72 | 14.3 | 28.483 | 2.58 | – |
| C/C(=C\c1cc(F)cc(N2CCN(S(=O)(=O)c3cnn(C)c3)CC2)c1)[C@H]1OC(=O)C[C@H](O)CC[C@H](C)[C@@H](OC(=O)N2CCNCC2)/C=C/[C@@H]1C [D28] | – | – | – | – | GI50 [6]: > 400 nM; Payload LD50 [6]: >400 nM |
| C/C(=C\c1cc(F)cc(N2CCN(CC(=O)O)CC2)c1)[C@H]1OC(=O)C[C@H](O)CC[C@H](C)[C@@H](OC(=O)N2CCNCC2)/C=C/[C@@H]1C [D33, 2-(4-(3-fluoro-5-((E)-2-((2S,3S,6R,7S,10R,E)-10-hydroxy-3,7-dimethyl-12-oxo-6-((piperazine-1-carbonyl)oxy)oxacyclododec-4-en-2-yl)prop-1-en-1-yl)phenyl)piperazin-1-yl)acetic acid] | 7.48 | 72.4 | 5202.992 | – | GI50 [5]: 196 nM |
